# Measured values from patent publication US12702660B2, “Method for treating cancer with an oral dosage form of an estrogen receptor-alpha inhibitor” (Eisai R&D Management Co., Ltd., priority 2019, dated 2026).
# Where two headings read alike, the source gives them in different places.
# Assay: Plasma PK of H3B-6545 capsules in fasted patients, phase 1 dose escalation
# Assay type: in vivo, human
# Conditions: for Vd / Vd/F / Tmax / AUC(0-inf) / Cmax / half-life / AUC(0-t): female, human, plasma, oral; for Vd / Vd/F / AUC(0-inf) / Cmax / half-life / AUC(0-t): Geometric Mean (GeoCV %); for Vd: read-out: Vss; for Vd/F: read-out: Vz/F
# Protocol: Blood samples were collected at the planned time points from each patient and centrifuged. The plasma portion of each sample was then transferred to a K2EDTA tube, which was then shipped to a bioanalytical lab for concentration measurement using LC-MS/MS. The concentration data were then analyzed using Phoenix® WinNonlin software to obtain PK parameters. The obtained PK parameters were further summarized using analytical software.
# Blood samples (approximately 5 mL each) were collected from human patients pre-dose and at various hourly time points post-dose. Plasma concentrations of H3B-6545 were determined using a validated high-performance liquid chromatography/tandem mass spectrometry (LC-MS/MS) method. The lower limit of quantification was 0.100 ng/mL.
# The PK Analysis Set included subjects who received H3B-6545 drug product in capsules or tablets and had sufficient evaluable plasma concentration data to derive at least 1 primary PK parameter in each treatment. Plasma concentrations of H3B-6545 (as free base) were tabulated and summarized at each nominal time using descriptive statistics (number of subjects, arithmetic mean with standard deviation [SD], coefficient of variation [CV %], geometric mean, median, minimum, and maximum) as appropriate. Individual and mean (±SD) plasma concentration-time profiles were provided for each treatment.
# Pharmacokinetic parameters of H3B-6545 were calculated using noncompartmental methods, using an appropriate model for plasma data and extravascular administration. The PK parameters included, but were not limited to, area under the curve to the time of the last quantifiable concentration (AUC0-t), maximum concentration (Cmax), and time at which the maximum concentration occurred (tmax). If data permitted, the area under the plasma concentration-time curve extrapolated to infinity (AUC0-inf), terminal elimination half-life (t1/2), apparent total body clearance (CL/F), total systemic clearance after oral administration at steady state (CLss/F), apparent volume of distribution during the terminal phase (Vz/F), apparent steady-state volume of distribution (Vss), accumulation ratio for Cmax (RCmax) and accumulation ratio of AUC0-24 (RAUC) were also derived.
# Methods were used to analyze whether H3B-6545 inactivates both wild-type and mutant ERα by targeting cysteine 530 and enforcing a unique antagonist conformation. Methods: Women with locally advanced or metastatic HR+BC are treated (tx) with H3B-6545 drug product administered once daily orally by capsule over a 28 day cycle after progression on at least one hormonal therapy and at least one additional therapy/regimen. Dose escalation uses a 3+3 design with the option to backfill previously cleared doses and allows for intrapatient dose escalation. This example explored the safety, pharmacokinetics and pharmacodynamics of H3B-6545 in women with HR+BC to identify a recommended subsequent dose for testing.
# • H3B-6545 administered once daily orally over a 28 day cycle. • Dose escalation using a standard 3+3 study design using dose cohorts of 100, 200, 300, 450, and 600 mg QD. • Patients allowed to backfill previously cleared doses. • Intra-patient dose escalation allowed after completion of Cycle 3. Results (as of Apr. 20, 2019) Patient Population: • 46 patients were treated with H3B-6545 at doses of 100 to 600 mg QD. • 42 (91.3%) patients received a prior CDK4/6 inhibitor and 32 (69.6%) prior fulvestrant. • 30 (65.2%) patients received ≥3 prior anti-cancer therapy lines in the advanced/metastatic setting.
# The clinical trial of Example 3 was continued and PK evaluations (of this Example 4) were made at a later date on the basis of a larger patient population. The summary of Tables 1 in Analysis of Pharmacokinetic (PK) of Capsules in Fasted Patients and 2 show PK parameters and profiles of human patients receiving capsules of H3B-6545 drug product prepared as in Example 1. […]
# [1] = 100 mg, Cycle 1 Day 1, 100 mg QD capsules, fasted patients
# [2] = 100 mg, Cycle 1 Day 15, 100 mg QD capsules, fasted patients
# [3] = 200 mg, Cycle 1 Day 1, 200 mg QD capsules, fasted patients
# [4] = 200 mg, Cycle 1 Day 15, 200 mg QD capsules, fasted patients
# [5] = 300 mg, Cycle 1 Day 1, 300 mg QD capsules, fasted patients
# [6] = 300 mg, Cycle 1 Day 15, 300 mg QD capsules, fasted patients
# [7] = 450 mg, Cycle 1 Day 1, 450 mg QD capsules, fasted patients
# [8] = 450 mg, Cycle 1 Day 15, 450 mg QD capsules, fasted patients
# [9] = 600 mg, Cycle 1 Day 1, 600 mg QD capsules, fasted patients
# [10] = 600 mg, Cycle 1 Day 15, 600 mg QD capsules, fasted patients
structure (smiles),measurement,setting,value
"CN(C)C(=O)/C=C/CNCCOc1ccc(/C(=C(/CC(F)(F)F)c2ccccc2)c2ccc3[nH]nc(F)c3c2)cn1 [H3B-6545, (E)-N,N-dimethyl-4-[2-[5-[(Z)-4,4,4-trifluoro-1-(3-fluoro-1H-indazol-5-yl)-2-phenylbut-1-enyl]pyridin-2-yl]oxyethylamino]but-2-enamide]",Vd,[1],713 L
same,Vd/F,[1],689 L
same,Tmax,"100 mg, Cycle 1 Day 1, 100 mg QD capsules, fasted patients, Median (Min, Max)",3.05 h
same,AUC(0-inf),[2],2950 ng·h/mL
same,Cmax,[2],287 ng/mL
same,half-life,[2],11.5 h
same,AUC(0-t),"100 mg, Cycle 1 Day 15, 100 mg QD capsules, fasted patients, read-out: AUC0-24",2560 ng·h/mL
same,AUC(0-t),"100 mg, Cycle 1 Day 15, 100 mg QD capsules, fasted patients, read-out: AUC0-t",2590 ng·h/mL
same,Vd,[2],679 L
same,Vd/F,[2],731 L
same,Tmax,"100 mg, Cycle 1 Day 15, 100 mg QD capsules, fasted patients, Median (Min, Max)",2 h
same,AUC(0-inf),[3],5270 ng·h/mL
same,Cmax,[3],473 ng/mL
same,half-life,[3],9.73 h
same,AUC(0-t),"200 mg, Cycle 1 Day 1, 200 mg QD capsules, fasted patients, read-out: AUC0-24",4760 ng·h/mL
same,AUC(0-t),"200 mg, Cycle 1 Day 1, 200 mg QD capsules, fasted patients, read-out: AUC0-t",4810 ng·h/mL
same,Vd,[3],567 L
same,Vd/F,[3],532 L
same,Tmax,"200 mg, Cycle 1 Day 1, 200 mg QD capsules, fasted patients, Median (Min, Max)",5 h
same,AUC(0-inf),[4],7950 ng·h/mL
same,Cmax,[4],605 ng/mL
same,half-life,[4],10.1 h
same,AUC(0-t),"200 mg, Cycle 1 Day 15, 200 mg QD capsules, fasted patients, read-out: AUC0-24",6870 ng·h/mL
same,AUC(0-t),"200 mg, Cycle 1 Day 15, 200 mg QD capsules, fasted patients, read-out: AUC0-t",6910 ng·h/mL
same,Vd,[4],456 L
same,Vd/F,[4],455 L
same,Tmax,"200 mg, Cycle 1 Day 15, 200 mg QD capsules, fasted patients, Median (Min, Max)",2.17 h
same,AUC(0-inf),[5],11100 ng·h/mL
same,Cmax,[5],898 ng/mL
same,half-life,[5],9.58 h
same,AUC(0-t),"300 mg, Cycle 1 Day 1, 300 mg QD capsules, fasted patients, read-out: AUC0-24",9480 ng·h/mL
same,AUC(0-t),"300 mg, Cycle 1 Day 1, 300 mg QD capsules, fasted patients, read-out: AUC0-t",9520 ng·h/mL
same,Vd,[5],416 L
same,Vd/F,[5],374 L
same,Tmax,"300 mg, Cycle 1 Day 1, 300 mg QD capsules, fasted patients, Median (Min, Max)",4 h
same,AUC(0-inf),[6],12700 ng·h/mL
same,Cmax,[6],1200 ng/mL
same,half-life,[6],8.52 h
same,AUC(0-t),"300 mg, Cycle 1 Day 15, 300 mg QD capsules, fasted patients, read-out: AUC0-24",12000 ng·h/mL
same,AUC(0-t),"300 mg, Cycle 1 Day 15, 300 mg QD capsules, fasted patients, read-out: AUC0-t",12100 ng·h/mL
same,Vd,[6],373 L
same,Vd/F,[6],348 L
same,Tmax,"300 mg, Cycle 1 Day 15, 300 mg QD capsules, fasted patients, Median (Min, Max)",4 h
same,AUC(0-inf),[7],23000 ng·h/mL
same,Cmax,[7],1500 ng/mL
same,half-life,[7],11 h
same,AUC(0-t),"450 mg, Cycle 1 Day 1, 450 mg QD capsules, fasted patients, read-out: AUC0-24",16200 ng·h/mL
same,AUC(0-t),"450 mg, Cycle 1 Day 1, 450 mg QD capsules, fasted patients, read-out: AUC0-t",16200 ng·h/mL
same,Vd,[7],343 L
same,Vd/F,[7],311 L
same,Tmax,"450 mg, Cycle 1 Day 1, 450 mg QD capsules, fasted patients, Median (Min, Max)",4 h
same,AUC(0-inf),[8],17400 ng·h/mL
same,Cmax,[8],1420 ng/mL
same,half-life,[8],9.81 h
same,AUC(0-t),"450 mg, Cycle 1 Day 15, 450 mg QD capsules, fasted patients, read-out: AUC0-24",14000 ng·h/mL
same,AUC(0-t),"450 mg, Cycle 1 Day 15, 450 mg QD capsules, fasted patients, read-out: AUC0-t",14100 ng·h/mL
same,Vd,[8],489 L
same,Vd/F,[8],466 L
same,Tmax,"450 mg, Cycle 1 Day 15, 450 mg QD capsules, fasted patients, Median (Min, Max)",4 h
same,AUC(0-inf),[9],32900 ng·h/mL
same,Cmax,[9],2050 ng/mL
same,half-life,[9],13.1 h
same,AUC(0-t),"600 mg, Cycle 1 Day 1, 600 mg QD capsules, fasted patients, read-out: AUC0-24",22400 ng·h/mL
same,AUC(0-t),"600 mg, Cycle 1 Day 1, 600 mg QD capsules, fasted patients, read-out: AUC0-t",22300 ng·h/mL
same,Vd,[9],366 L
same,Vd/F,[9],344 L
same,Tmax,"600 mg, Cycle 1 Day 1, 600 mg QD capsules, fasted patients, Median (Min, Max)",4 h
same,AUC(0-inf),[10],39700 ng·h/mL
same,Cmax,[10],1680 ng/mL
same,half-life,[10],21.8 h
same,AUC(0-t),"600 mg, Cycle 1 Day 15, 600 mg QD capsules, fasted patients, read-out: AUC0-24",18400 ng·h/mL
same,AUC(0-t),"600 mg, Cycle 1 Day 15, 600 mg QD capsules, fasted patients, read-out: AUC0-t",18700 ng·h/mL
same,Vd,[10],1100 L
same,Vd/F,[10],1030 L
same,Tmax,"600 mg, Cycle 1 Day 15, 600 mg QD capsules, fasted patients, Median (Min, Max)",4 h
same,Tmax,"as of 10 Dec. 2018, 100 to 450 mg/day capsules",2 to 4 h
same,Tmax,"as of Apr. 20, 2019, 100 to 600 mg QD",2 to 4 h
same,"plasma concentration, C1D1 versus C1D15",once daily dosing,similar
